Data as given in paper PMC5007552, “The hVps34‐SGK3 pathway alleviates sustained PI3K/Akt inhibition by stimulating mTORC1 and tumour growth” (The EMBO Journal, 2016).

Assays:
[1] = system: NDRG1 phosphorylation in ZR-75-1 cells; assay: Immunoblot of NDRG1 (Thr346) phosphorylation in breast cancer cells; type: cell-based, human; conditions: 1 μM, 1 h; ZR-75-1, CAMA-1 (and T47D for PI3K inhibitors)
Description: Cell lysates were subjected to immunoblot analysis with the indicated antibodies. • ZR‐75‐1 cells cultured in serum in the absence of Akt inhibitor were treated for 1 h with the indicated concentrations of VPS34‐IN1. […] One hour prior to lysis, the cells were incubated in the presence or absence of 1 μM VPS34‐IN1. SGK3 was immunoprecipitated from lysates and subjected to in vitro kinase assay by measuring phosphorylation of the Crosstide substrate peptide in the presence of 0.1 mM [γ‐^32P]ATP in a 30 min 30°C reaction (upper panel). Kinase reactions are presented as means ± SD for triplicate reaction. Immunoprecipitates (IP) and lysates were analysed by immunoblot with the indicated antibodies. […] SGK3 was immunoprecipitated from the lysates and subjected to in vitro kinase assay as in (C). Kinase reactions are presented as means ± SD for triplicate reaction. Immunoprecipitates (IP) and lysates (lower panel) were also subjected to immunoblot analysis with the indicated antibodies. • ZR‐75‐1 cells were cultured in the absence or presence of 1 μM MK‐2206 for 5 days. Cells were then treated in the absence or presence of 0.1 μM AZD8055 or 0.1 μM rapamycin for 1 h. SGK3 was immunoprecipitated and subjected to in vitro kinase assay as in (C). Kinase reactions are presented as means ± SD for triplicate reaction. The immunoprecipitates (IP) and lysates were analysed with the indicated antibodies.
One hour prior to lysis, the cells were incubated in the presence of absence of 0.3 μM SAR405. SGK3 was immunoprecipitated from lysates and subjected to in vitro kinase assay by measuring phosphorylation of the Crosstide substrate peptide in the presence of 0.1 mM [γ‐^32P]ATP in a 30 min 30°C reaction (upper panel). Kinase reactions are presented as means ± SD for triplicate reaction. Immunoprecipitates (IP) and lysates were also analysed by immunoblot with the indicated antibodies.
The result for each kinase is presented as a mean kinase activity of the reaction taken in triplicate relative to a control reaction where the inhibitors were omitted. […] SGK3 was immunoprecipitated from cell lysates and subjected to in vitro kinase assay by measuring phosphorylation of the Crosstide substrate peptide in the presence of 0.1 mM [γ‐^32P]ATP in a 30 min 30°C reaction (upper panel). Kinase reactions are presented as means ± SD for triplicate reaction.
HEK293 cells were purchased from the American Tissue Culture Collection (ATCC). Cells were cultured in RPMI or DMEM media supplemented with 10% (v/v) foetal bovine serum, 2 mM L‐glutamine, 100 U/ml penicillin and 0.1 mg/ml streptomycin. Inhibitor treatments were carried out as described in figure legends. During 5 days inhibitor treatments, the media was changed after 72‐h intervals. The cells were lysed in buffer containing 50 mM Tris–HCl (pH 7.5), 150 mM NaCl, 1 mM EDTA, 1 mM EGTA, 1 mM sodium orthovanadate, 10 mM sodium glycerophosphate, 10 mM sodium pyrophosphate, 0.27 M sucrose, 0.1% (v/v) 2‐mercaptoethanol, 1 mM benzamidine and 0.1 mM PMSF. Lysates were clarified by centrifugation at 16,000 g for 10 min at 4°C. Protein concentration was calculated using Bradford assay (Thermo Scientific). Immunoblotting and immunoprecipitation were performed using standard procedures. The signal was developed using ECL Western Blotting Detection Kit (Amersham) on Amersham Hyperfilm ECL film (Amersham).

BT-474c cells = assay: Cell growth in vitro (confluency, Incucyte ZOOM); type: cell-based, human
Description: (§1) Figure 8 Dual treatment with Akt and SGK inhibitors reduces tumour growth in BT‐474 xenograft model • BT‐474 cells were treated for the indicated times with 0.3 μM MK‐2206. The cell lysates were analysed by immunoblot using the indicated antibodies. • BT‐474c cells were treated with inhibitors as indicated either as monotherapy or in combination and cell confluency measured on the Incucyte ZOOM every 4 h for up to 4 weeks. • BT‐474 cells were injected subcutaneously into athymic Foxn1 ^nu nude mice. […] The tumour volume was measured twice a week. Tumour growth is represented as the fold change mean ± SEM. • All mice were weighed at the end of the treatments. […] Results are presented as a mean ± SD from three different samples. • Tumours were harvested at the end of the experiment, 4 h after the last dosage and subjected to immunohistochemical analysis using cleaved caspase‐3 antibody (clCasp3). Apoptotic cells were counted in 25 fields per condition (left panel) and quantified as clCasp3‐positive cells/field (right panel). The results are presented as mean ± SD number of cleaved caspase‐3 positive cells. Representative images are shown. Scale bar, 100 μm. • Tumours were harvested at the end of the experiment, 4 h after the last dosage and subjected to immunohistochemical analysis with the indicated antibodies. Representative images are shown. Scale bar, 100 μm. • Tumours were obtained the same way as in (G) and subjected to immunoblot analysis with the indicated antibodies. Six different tumours were analysed from each treatment group and each line represents one tumour sample. TEXT PRINTED IN THE PICTURE: (E) MK-2206: plasma conc.
SGK3 (upper panel) and S6K1 (middle panel) were immunoprecipitated and subjected to in vitro kinase assay by measuring phosphorylation of the Crosstide substrate peptide in the presence of 0.1 mM [γ‐^32P]ATP in a 30 min 30°C reaction. Kinase reactions are presented as means ± SD for triplicate reaction. Immunoprecipitates (IP) were also analysed by immunoblot with the indicated antibodies. […]

[2] = system: BT-474 human breast xenograft; assay: BT-474 xenograft tumour growth in nude mice; type: in vivo; conditions: 24 days, monotherapy
Description: (§2) Figure 8 Dual treatment with Akt and SGK inhibitors reduces tumour growth in BT‐474 xenograft model • BT‐474 cells were treated for the indicated times with 0.3 μM MK‐2206. The cell lysates were analysed by immunoblot using the indicated antibodies. • BT‐474c cells were treated with inhibitors as indicated either as monotherapy or in combination and cell confluency measured on the Incucyte ZOOM every 4 h for up to 4 weeks. • BT‐474 cells were injected subcutaneously into athymic Foxn1 ^nu nude mice. […] The tumour volume was measured twice a week. Tumour growth is represented as the fold change mean ± SEM. • All mice were weighed at the end of the treatments. […] Apoptotic cells were counted in 25 fields per condition (left panel) and quantified as clCasp3‐positive cells/field (right panel). […] Six different tumours were analysed from each treatment group and each line represents one tumour sample. […]
(§3) Experiments involving mice were in accordance with Institutional Guidelines of Memorial Sloan Kettering Cancer Center (Protocol number 12‐10‐019). […] When tumours reached a volume of ~150 mm^3, mice were randomised, treated, and tumours were measured twice a week. Tumour volume was determined using the following formula: (length × width^2) ÷ 2. […]

[3] = Plasma concentration at end of xenograft study; type: in vivo, mice; conditions: 2–3 h after last dose on day 24, MK-2206 100 mg/kg, 14h 25 mg/kg p.o.
Description: as §1

BT-474 xenograft tumours = assay: Immunohistochemical and immunoblot analysis of signalling markers in xenograft tumours; type: in vivo, mice; conditions: end of treatment, IHC and immunoblot
Description: as §2, §3

plasma conc. ([3]; dual treatment)	plasma conc. ([3]; mono treatment)	Compound	phosphorylation of PRAS40 (Thr246) and NDRG1 (Thr346) [1]	time to reach confluency (BT-474c cells; 0.3 μM Akt inhibitor, long-term growth assay)	inhibition of in vivo growth of BT-474 ([2]; 100 mg/kg p.o. 5 times/week)	phosphorylation markers in tumour samples (Akt 473, PRAS40, NDRG1, S6) (BT-474 xenograft tumours)	cell growth when 14h is combined with Akt inhibitor (BT-474c cells; 3 μM 14h with 0.3 μM AZD5363 or MK-2206, from beginning or 12 days after)	anti-proliferative effect alone (BT-474c cells; 3 μM, 5–6 days)	anti-tumour effect ([2]; 25 mg/kg p.o. 5 times/week)
2690 ± 250 nM	2690 ± 530 nM	NC1(c2ccc(-c3nc4ccn5c(=O)[nH]nc5c4cc3-c3ccccc3)cc2)CCC1 [MK-2206]	inhibited	~20 days	~ 20%	ablated Akt 473 and PRAS40 phosphorylation	–	–	–
1390 ± 360 nM	1770 ± 540 nM	Nc1n[nH]c2nc(-c3ccc(NS(=O)(=O)c4cc(Cl)ccc4Cl)cc3)cnc12 [14h]	–	–	–	no major effect	further reduction in cell growth	little anti‐proliferative effect	No anti‐tumour effects
